Assay results reported in paper PMC9465256, “Discovering monoacylglycerol lipase inhibitors by a combination of fluorogenic substrate assay and activity-based protein profiling” (Frontiers in Pharmacology, 2022).

Key:
[1] = tested on: panel of cancer cell lines (A431, H1975, B16-F10, OVCAR-3, HT-29, HCC827, Hela, A549); assay: Cell viability assay (CCK-8), panel of eight cancer cell lines; assay type: cell-based; conditions: 48 h; for antiproliferative screening across the cell line panel: 20 µM
Procedure: (§1) Various cancer cell lines, including human colon cancer cell line HT-29, ovarian cell line OVCAR-3, melanoma cell line B16-F10, skin squamous cancer cells A431, cervical cancer cells Hela, lung cancer cell lines A549, H1975, and HCC827, were purchased from American type culture collection (ATCC). A431, H1975, B16-F10, OVCAR-3, HT-29, HCC827, Hela, and A549 cells were cultured in Dulbecco’s modified Eagle medium (DMEM, Gibco) containing 10% fetal bovine serum (FBS, Gibco), penicillin (100 U/ml) and streptomycin (100 μg/ml). All cell lines were maintained in a humidified 37°C incubator with 5% CO2. The medium was refreshed every 2–3 days and the cells were passaged at ∼90% confluence by adding the fresh medium, followed by vigorously pipetting the resuspend cells. Of note, the cells were only washed with PBS when a significant number of dead cells were observed.
(§2) The antiproliferation activity of the compounds against the cancer cell lines was evaluated using Cell Counting Kit-8. Briefly, cells (∼1,000 per well) in 100 µl of culture medium were plated in a 96-well plate for 24 h and 100 µl of medium with different concentrations of the tested compounds was added to each well for 48 h. Then 10 μl of CCK8 solution (#CK04, Dojindo) was added and incubated at 37°C for 2 h. The absorbance of each well was measured with a plate reader (BioTeck) at 450 nm. Cell viability was calculated as follows: cell viability (%) = [(As-Ab)/(Ac-Ab)] × 100. Among them, As represents the absorbance of experimental wells, Ab represents the absorbance of blank wells and Ac represents the absorbance of control wells. The experiments were repeated at least three times and IC50 values were determined by plotting a log(inhibitor) v. s normalized response (Variable slope) dose–response curve generated using GraphPad Prism software.

A549 cells = assay: Cell viability assay (CCK-8), A549; assay type: cell-based; conditions: A549, 48 h; for IC50: Homo sapiens, read-out: Antiproliferation activity (pIC50 ± SEM) A549 (converted)
Procedure: as §1, §2

human ABHD12 = molecular target: T1, human ABHD12 (Homo sapiens, UniProt Q8N2K0); assay: ABHD12 activity by competitive ABPP with FP-TAMRA; assay type: biochemical; conditions: for potency towards ABHD12: 100 µM; for potency towards ABHD12 / inhibition at 100 µM: competitive ABPP; for inhibition at 100 µM: recombinant human ABHD12, 100 µM compound
T1 construct: expressed in transfected cells; host or cells: HEK293T (transient transfection; membrane fraction)
T1 sequence (Q8N2K0 1-398): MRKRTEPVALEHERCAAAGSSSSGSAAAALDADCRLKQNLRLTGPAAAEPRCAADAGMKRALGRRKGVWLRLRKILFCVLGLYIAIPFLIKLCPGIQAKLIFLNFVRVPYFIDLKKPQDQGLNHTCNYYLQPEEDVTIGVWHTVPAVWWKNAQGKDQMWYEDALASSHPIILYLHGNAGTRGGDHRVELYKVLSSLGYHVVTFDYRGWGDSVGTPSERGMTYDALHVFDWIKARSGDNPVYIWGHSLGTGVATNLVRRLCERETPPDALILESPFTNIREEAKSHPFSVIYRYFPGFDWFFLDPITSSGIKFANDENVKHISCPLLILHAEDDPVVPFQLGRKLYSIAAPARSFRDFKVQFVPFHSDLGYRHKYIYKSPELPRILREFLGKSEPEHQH
How it was run: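 Membrane fractions of HEK293T cells transiently overexpressing human ABHD12 (1 mg/ml) preincubated with inhibitor or DMSO for 30 min at room temperature, then labelled with FP-TAMRA (250 nM final) for 20 min. Quenched samples resolved by SDS-PAGE and read by in-gel fluorescence scanning (Cy3 settings).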

[2] = tested on: serine hydrolases labeled by FP-TAMRA in mouse brain membrane proteome; assay: Competitive ABPP selectivity assay, mouse brain membrane proteome; assay type: biochemical; conditions: 100 µM, FP-TAMRA 250 nM
Procedure: Mouse brains were dounce homogenized lysis buffer (20 mM HEPES, 2 mM DTT, 1 mM MgCl2, 25 U/mL benzonase) and incubated on ice for 15 min, followed by low-speed spin (2,500 g, 3 min, 4 C) to remove debris. The supernatant was subjected to ultracentrifugation (100,000 g, 45 min, 4°C) to generate the cytosolic fraction in the supernatant, as well as the membrane fraction as a pellet. After removal of the soluble supernatant, the pellet was resuspended in storage buffer (20 mM HEPES, 2 mM DTT) by pipetting. Total protein concentrations in membrane and soluble fractions were determined using a Qubit protein assay (Invitrogen). The obtained samples were stored at −80°C until further use.
The competitive ABPP selectivity assay was performed according to the previously reported protocol. Briefly, mouse brain membrane proteome (2 mg/ml, 20 µl) was preincubated for 30 min with 0.5 µl of DMSO (vehicle) or inhibitor (100 μM, finial concentration). […] The reactions were then quenched by 10 µl sample buffer (×4). The obtained samples were directly loaded and resolved on SDS-PAGE gel (10% acrylamide). The gels were then scanned and analyzed using a ChemiDoc MP system (Cy3 settings, BioRad). All the samples were measured and duplicated.

[3] = 100 µM compound, competitive ABPP with probe FP-TAMRA (250 nM), read-out: ABHD12 Inhibition (%)

SMILES	antiproliferative screening across the cell line panel [1]	Antiproliferation activity (pIC50 ± SEM) A549 (A549 cells)	activity (human ABHD12; [3])	IC50 (A549 cells)	activity at 100 µM (human ABHD12; [3])	potency towards ABHD12 (human ABHD12)	inhibition at 100 µM (human ABHD12)	IC50 ([1]; CCK-8, read-out: pIC50 towards all eight cancer cell lines (converted))	selectivity profile over serine hydrolases [2]
Cl.N=c1ccn2c(n1)O[C@H]1[C@H](O)[C@@H](CO)O[C@H]12 [compound 1, Cyclocytidine HCl]	appreciable inhibition against almost all the tested cell lines	6.3 ± 0.2	70.1%						
O=c1cc(-c2ccc(O)cc2)oc2cc(O)cc(O)c12 [compound 9, Apigenin]	neglectable antiproliferative behavior to other cell lines			> 10 µM	62.8%	neglectable potency	37%		
COc1ccc2cc3[n+](cc2c1OC)CCc1cc2c(cc1-3)OCO2 [compound 17, Berberine chloride]				> 10 µM	86.1%				
C[C@H]1COC2=C1C(=O)C(=O)c1c2ccc2c1CCCC2(C)C [compound 23, Cryptotanshinone]	appreciable inhibition against almost all the tested cell lines			3.16 µM	81.6%	neglectable potency	18%	≤ 10 µM	broad-spectrum inhibitors that cross-reacted with multiple serine hydrolases
COc1ccc(C(C)=O)c(O)c1 [compound 64, Paeonol]	selectively inhibited cell proliferation of A431 over other cell lines			> 10 µM	92.2%				
